Test results reported in patent publication US10703746B2, “Mutant IDH1 inhibitors useful for treating cancer” (THE UNITED STATES OF AMERICA, AS REPRESENTED BY THE …, priority 2014, dated 2020).

Legend:
IDH1 R132H = IDH1 R132H (Homo sapiens, UniProt O75874, R132H); assay: IDH1 R132H enzymatic assay (NADPH depletion coupled to diaphorase/resazurin); format: biochemical
IDH1 R132C = IDH1 R132C (Homo sapiens, UniProt O75874, R132C); assay: IDH1 R132C enzymatic assay (NADPH depletion coupled to diaphorase/resazurin); format: biochemical
How it was run: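 NADPH depletion, read via diaphorase/resazurin coupling, after adding substrate at 0.6 mM α-KG and 0.012 mM NADPH. Beforehand, 0.00032 mg/mL enzyme sat with compound 30 min at room temperature in pH 6.5 potassium phosphate buffer with MgCl2, glycerol and BSA.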

[1] = enzymatic inhibition, IDH1 R132H
[2] = enzymatic inhibition, IDH1 R132C
[3] = IDH1 R132H enzymatic inhibition, IC50 class
[4] = IDH1 R132C enzymatic inhibition, IC50 class

Chain of IDH1 R132C (O75874 whole entry R132C): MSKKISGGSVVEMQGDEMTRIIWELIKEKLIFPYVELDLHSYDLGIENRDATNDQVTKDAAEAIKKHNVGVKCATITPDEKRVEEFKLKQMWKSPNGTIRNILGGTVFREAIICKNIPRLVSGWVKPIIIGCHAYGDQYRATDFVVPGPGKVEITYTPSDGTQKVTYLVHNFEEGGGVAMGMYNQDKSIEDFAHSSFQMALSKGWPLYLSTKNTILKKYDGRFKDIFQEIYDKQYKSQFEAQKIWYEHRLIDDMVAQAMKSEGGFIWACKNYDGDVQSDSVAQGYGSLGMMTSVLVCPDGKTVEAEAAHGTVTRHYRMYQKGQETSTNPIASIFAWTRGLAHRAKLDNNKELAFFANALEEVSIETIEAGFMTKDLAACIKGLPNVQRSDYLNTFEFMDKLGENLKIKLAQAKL
Chain of IDH1 R132H (O75874 whole entry R132H): as the sequence (O75874 whole entry R132C) above, with C132H counted along it

Row | SMILES | IC50 (IDH1 R132H; [1]) [nM] | IC50 (IDH1 R132C; [2]) [nM] | IC50 (IDH1 R132H; [3]) [nM] | IC50 (IDH1 R132C; [4]) [nM]
1 | CC(C)=Cc1c(C(=O)N2CCNCC2)cc(-c2nc(-c3ccc(Cl)cc3)cs2)c(=O)n1-c1cc(Cl)cnc1OC(C)C [Compound 602] | < 300 | < 300 |  | 
2 | COc1ccc(C#N)cc1-n1c(C=C(C)C)c(C(=O)N2CCNCC2)cc(-c2nc(-c3ccc(Cl)cc3)cs2)c1=O [Compound 603] | 300 to 1000 | 300 to 1000 |  | 
3 | CCc1cccc(CC)c1-n1c(C=C(C)C)c(C(=O)N2CCNC[C@@H]2C)cc(-c2nc(-c3ccc(C(F)(F)F)cc3)cs2)c1=O [Compound 604] | < 300 | < 300 |  | 
4 | CCc1cccc(CC)c1-n1c(C=C(C)C)c(C(=O)N2CCNCC2)cc(-c2nc(-c3ccc(OC4CC4)cc3)cs2)c1=O [Compound 605] | < 300 | < 300 |  | 
5 | CCc1cccc(CC)c1-n1c(C=C(C)C)c(C(=O)N2CCNCC2)cc(-c2ccn(-c3ccc(C4CC4)cc3)n2)c1=O [Compound 606] | < 300 | < 300 |  | 
6 | CCc1cccc(CC)c1-n1c(CC(C)C)c(C(=O)N2CCNCC2)cc(-c2nc(-c3ccc(Cl)c(F)c3)c(C)s2)c1=O [Compound 608] | < 300 | < 300 |  | 
7 | CCOc1cccc(OCC)c1-n1c2c(cc(-c3nc(-c4ccc(Cl)cc4)cs3)c1=O)C(=O)CC(C)(C)C2 [Compound 609] | 300 to 1000 | 300 to 1000 |  | 
8 | Cc1ccc(Cl)c(-n2c3c(cc(-c4nc(-c5ccc(Cl)cc5)cs4)c2=O)C(=O)CC(C)(C)C3)c1 [Compound 613] | 300 to 1000 | 300 to 1000 |  | 
9 | COc1ncccc1-n1c(C=C(C)C)c(C(=O)N2CCNCC2)cc(-c2nc(-c3ccc(Cl)cc3)cs2)c1=O [Compound 614] | < 300 | < 300 |  | 
10 | CC(C)=Cc1c(C(=O)N2CCNCC2)cc(-c2nc(-c3ccc(Cl)cc3)cs2)c(=O)n1-c1ccc[nH]c1=O [Compound 616] | 5000 to 20000 | 5000 to 20000 |  | 
11 | CCc1ncc(F)cc1-n1c(C=C(C)C)c(C(=O)N2CCNCC2)cc(-c2nc(-c3ccc(C(F)F)cn3)cs2)c1=O [Compound 619] |  |  | 1000 to 5000 | 1000 to 5000
12 | CCc1cccc(CC)c1-n1c(CC(C)C)c(C(=O)N2CCNCC2)cc(-c2nc(-c3ccc(Cl)c(C)c3)c(C)s2)c1=O [Compound 624] |  |  | 300 to 1000 | < 300
13 | CCOc1ccc(Cl)cc1-n1c(C=C(C)C)c(C(=O)N2CCNCC2)cc(-c2nc(-c3ccc(C(F)(F)F)nc3)cs2)c1=O [Compound 626] |  |  | < 300 | 300 to 1000
14 | CCc1cccc(C)c1-n1c2c(cc(-c3nc(-c4ccc(Cl)cc4)cs3)c1=O)C(=O)CCC2 [Compound 628] |  |  | 1000 to 5000 | 1000 to 5000
15 | COc1ccc(F)cc1-n1c(C=C(C)C)c(C(=O)N2CCNCC2)cc(-c2nc(-c3ccc(Cl)cc3)cs2)c1=O [Compound 630] |  |  | < 300 | < 300
16 | CCc1cccc(CC)c1-n1c(CC(C)C)c(C(=O)N2CCNCC2)cc(-c2nc(-c3ccc(Cl)cc3F)c(C)s2)c1=O [Compound 632] |  |  | 300 to 1000 | 300 to 1000
17 | CCc1cccc(CC)c1-n1c(CC(C)C)c(C(=O)N2CCNCC2)cc(-c2nc(-c3ccc(Cl)c(OC)c3)c(C)s2)c1=O [Compound 633] |  |  | 300 to 1000 | 300 to 1000
18 | O=C1CCCc2c1cc(-c1nc(-c3ccc(Cl)cc3)cs1)c(=O)n2-c1ccccc1CO [Compound 634] |  |  | > 20000 | 5000 to 20000
19 | CCc1cccc(CC)c1-n1c(C=C(C)C)c(C(=O)N2CCCNC(=O)C2)cc(-c2ccn(-c3ccc(Cl)cc3)n2)c1=O [Compound 635] |  |  | < 300 | < 300
20 | CCc1ncc(OC)cc1-n1c(C=C(C)C)c(C(=O)N2CCNCC2)cc(-c2nc(-c3ccc(C(F)(F)F)cc3)cs2)c1=O [Compound 636] |  |  | < 300 | < 300
21 | CCc1cccc(CC)c1-n1c(CC(C)C)c(C(=O)N2CCNCC2)cc(-c2nc(-c3ccc(Cl)cc3Cl)c(C)s2)c1=O [Compound 637] |  |  | 300 to 1000 | 300 to 1000
22 | CCc1cccc(CC)c1-n1c(C=C(C)C)c(C(=O)N2CCNCC2)cc(-c2nn(-c3ccc(Cl)cc3)cc2C)c1=O [Compound 638] |  |  | < 300 | 1000 to 5000
23 | CCOc1ncc(C)cc1-n1c(C=C(C)C)c(C(=O)N2CCNCC2)cc(-c2nc(-c3ccc(C(F)(F)F)nc3)cs2)c1=O [Compound 639] |  |  | < 300 | 300 to 1000
24 | CCc1cccc(CC)c1-n1c(CC(C)C)c(C(=O)N2CCNCC2)cc(-c2ccn(-c3ccc(C(F)(F)F)cc3)n2)c1=O [Compound 640] |  |  | < 300 | < 300

Other lines, results leading:

Row | IC50 (IDH1 R132H; [1]) [nM] | IC50 (IDH1 R132C; [2]) [nM] | IC50 (IDH1 R132H; [3]) [nM] | IC50 (IDH1 R132C; [4]) [nM] | SMILES
25 | < 300 | < 300 |  |  | CCc1cccc(CC)c1-n1c(C=C(C)C)c(C(=O)N2CCNCC2CC(=O)O)cc(-c2nc(-c3ccc(Cl)cc3)cs2)c1=O (stereo not drawn) [Compound 599]
26 | 300 to 1000 | 1000 to 5000 |  |  | CCc1ccc(Cl)c(CC)c1-n1c(C)c(C(=O)N2CCNCC2)cc(-c2nc(-c3ccc(Cl)cc3)cs2)c1=O [Compound 600]
27 | 300 to 1000 | < 300 |  |  | CCc1cccc(CC)c1-n1c(CC(C)C)c(C(=O)N2CCNCC2)cc(-c2nc(-c3ccc(Cl)cc3)c(Br)s2)c1=O [Compound 601]
28 | 300 to 1000 | 300 to 1000 |  |  | CCc1cccc(CC)c1-n1c2c(cc(-c3nc(-c4ccc(Cl)cc4)cs3)c1=O)C(=O)N1CCCCC21 (stereo not drawn) [Compound 610]
29 | < 300 | < 300 |  |  | CCc1cccc(CC)c1-n1c(CC2CCOC2)c(C(=O)N2CCNCC2)cc(-c2nc(-c3ccc(Cl)cc3)cs2)c1=O (stereo not drawn) [Compound 611]
30 | < 300 | < 300 |  |  | CCc1cccc(CC)c1-n1c(CC2CCCCC2)c(C(=O)N2CCNCC2)cc(-c2nc(-c3ccc(Cl)cc3)cs2)c1=O [Compound 612]
31 | > 20000 | > 20000 |  |  | CCc1cccc(CC)c1-n1c(CC2CCNCC2)c(C(=O)N2CCNCC2)cc(-c2nc(-c3ccc(Cl)cc3)cs2)c1=O [Compound 615]
32 |  |  | 1000 to 5000 | 1000 to 5000 | CCc1cccc(CC)c1N1C(=O)C(c2nc(-c3ccc(Cl)cc3)cs2)CC(CN2CCNCC2)=C1CC(C)C (stereo not drawn) [Compound 617]
33 |  |  | < 300 | < 300 | CCc1cccc(CC)c1-n1c(C=C(C)C)c(C(=O)N2CCNCC2)cc(-c2nc(-c3ccc(C4CC4)cc3)cs2)c1=O [Compound 620]
34 |  |  | 300 to 1000 | < 300 | CCc1cccc(CC)c1-n1c(C=C(C)C)c(C(=O)N2CCNCC2CC(C)C)cc(-c2nc(-c3ccc(Cl)cc3)cs2)c1=O (stereo not drawn) [Compound 621]
35 |  |  | < 300 | < 300 | CCc1cccc(CC)c1-n1c(CC2CCCC2)c(C(=O)N2CCNCC2)cc(-c2nc(-c3ccc(Cl)cc3)cs2)c1=O [Compound 622]
36 |  |  | < 300 | < 300 | CCc1cccc(CC)c1-n1c(C=C(C)C)c(C(=O)N2CCC(NC)CC2)cc(-c2nc(-c3ccc(Cl)cc3)cs2)c1=O [Compound 623]
37 |  |  | 5000 to 20000 | 5000 to 20000 | CCc1cccc(CC)c1-n1c(CC2CCNC2)c(C(=O)N2CCNCC2)cc(-c2nc(-c3ccc(Cl)cc3)cs2)c1=O (stereo not drawn) [Compound 627]
38 |  |  | < 300 | < 300 | CCc1cccc(CC)c1-n1c(C=C(C)C)c(C(=O)N2CCCC(N)C2)cc(-c2nc(-c3ccc(Cl)cc3)cs2)c1=O (stereo not drawn) [Compound 629]
39 |  |  | < 300 | < 300 | CCc1cccc(CC)c1-n1c(C=C(C)C)c(C(=O)N2CCNCC2C)cc(-c2nc(-c3ccc(Cl)cc3)cs2)c1=O (stereo not drawn) [Compound 631]
